From ChEMBL document CHEMBL5518238, “Structure-Activity Relationship (SAR) Studies of Novel Monovalent AR/AR-V7 Dual Degraders with Potent Efficacy against Advanced Prostate Cancer” (J Med Chem, 2024)
The source made the active and inactive calls. The rule behind the calls is not given here.

Tests used:
[1] = tested on: CWR22R; assay: Downregulation of MYC mRNA expression in human 22Rv1 cells at 10 uM incubated for 24 hrs by qRT-PCR analysis; assay type: functional, cell-based
[2] = tested on: CWR22R; assay: Antitumor activity against human 22Rv1 cells xenografted in NSG mouse assessed as tumor growth inhibition at 30 mg/kg, IG administered once daily for 21 days; assay type: functional; conditions: 22Rv1, po, 504 h, time 21 day, read-out: TGI
[3] = tested on: Androgen receptor (Homo sapiens), P10275 [UNDEFINED MUTATION]; assay: Induction of AR-V7 degradation in human 22Rv1 cells at 10 uM incubated for 24 hrs in presence of CHX by Western blot analysis; assay type: cell-based
[4] = tested on: CWR22R; assay: Induction of apoptosis in human 22Rv1 cells assessed as effect on Bcl-xL level incubated for 24 hrs by Western blot analysis; assay type: functional, cell-based; conditions: dose <= 10.0 µM
[5] = AUC (0 to infinity) in Sprague-Dawley rat at 5 mg/kg, iv by LC-MS/MS analysis; assay type: ADME, organism-based; conditions: in vivo
[6] = tested on: CWR22R; assay: Downregulation of […] mRNA expression in human 22Rv1 cells incubated for 24 hrs by qRT-PCR analysis; assay type: functional, cell-based; conditions: dose 5-10 µM
[7] = Stability in mouse plasma assessed as half life measured after 60 mins; assay type: ADME, cell-free
[8] = tested on: CWR22R; assay: Induction of cell cycle arrest in human 22Rv1 cells assessed as accumulation of cells at G0/G1 phase at 5 uM incubated for 24 hrs by DAPI staining based flow cytometric analysis (reference value: 26.3 %); assay type: functional
[9] = tested on: CWR22R; assay: Effect on MR level in human 22Rv1 at 2.5 to 20 uM incubated for 24 hrs by Western blot analysis; assay type: functional, cell-based; conditions: dose 2.5-20 µM
[10] = target: Androgen receptor (Homo sapiens, UniProt P10275); assay: (§1) Induction of AR-V7 degradation in human 22Rv1 cells incubated for 24 hrs by Western blot analysis; assay type: cell-based
[11] = tested on: Androgen receptor (Homo sapiens), P10275 [UNDEFINED MUTATION]; assay: as §1; assay type: cell-based; conditions: dose 1-10 µM
[12] = tested on: CWR22R; assay: Downregulation of KLK3 mRNA expression in human 22Rv1 cells at 10 uM incubated for 24 hrs by qRT-PCR analysis; assay type: functional, cell-based
[13] = Toxicity in NSG mouse xenografted with human 22Rv1 cells assessed as kidney damage t at 30 mg/kg, IG administered once daily for 21 days by H and E staining based analysis; assay type: organism-based, CWR22R; conditions: in vivo, po, 504 h, time 21 day
[14] = tested on: CWR22R; assay: Downregulation of P3H3 mRNA expression in human 22Rv1 cells at 10 uM incubated for 24 hrs by qRT-PCR analysis; assay type: functional, cell-based
[15] = tested on: LNCaP; assay: Antiproliferative activity against human LNCaP cells assessed as inhibition of cell growth incubated for 48 hrs by CCK-8 assay; assay type: functional, cell-based
[16] = Antiproliferative activity against human L02 cells assessed as inhibition of cell growth incubated for 48 hrs by CCK-8 assay; assay type: toxicity, cell-based
[17] = tested on: CWR22R; assay: Induction of apoptosis in human 22Rv1 cells assessed as effect on Caspase-3 level incubated for 24 hrs by Western blot analysis; assay type: functional, cell-based; conditions: dose <= 10.0 µM

Androgen receptor (Homo sapiens), P10275 [UNDEFINED MUTATION], sequence (P10275 whole entry, looked up, change not shown): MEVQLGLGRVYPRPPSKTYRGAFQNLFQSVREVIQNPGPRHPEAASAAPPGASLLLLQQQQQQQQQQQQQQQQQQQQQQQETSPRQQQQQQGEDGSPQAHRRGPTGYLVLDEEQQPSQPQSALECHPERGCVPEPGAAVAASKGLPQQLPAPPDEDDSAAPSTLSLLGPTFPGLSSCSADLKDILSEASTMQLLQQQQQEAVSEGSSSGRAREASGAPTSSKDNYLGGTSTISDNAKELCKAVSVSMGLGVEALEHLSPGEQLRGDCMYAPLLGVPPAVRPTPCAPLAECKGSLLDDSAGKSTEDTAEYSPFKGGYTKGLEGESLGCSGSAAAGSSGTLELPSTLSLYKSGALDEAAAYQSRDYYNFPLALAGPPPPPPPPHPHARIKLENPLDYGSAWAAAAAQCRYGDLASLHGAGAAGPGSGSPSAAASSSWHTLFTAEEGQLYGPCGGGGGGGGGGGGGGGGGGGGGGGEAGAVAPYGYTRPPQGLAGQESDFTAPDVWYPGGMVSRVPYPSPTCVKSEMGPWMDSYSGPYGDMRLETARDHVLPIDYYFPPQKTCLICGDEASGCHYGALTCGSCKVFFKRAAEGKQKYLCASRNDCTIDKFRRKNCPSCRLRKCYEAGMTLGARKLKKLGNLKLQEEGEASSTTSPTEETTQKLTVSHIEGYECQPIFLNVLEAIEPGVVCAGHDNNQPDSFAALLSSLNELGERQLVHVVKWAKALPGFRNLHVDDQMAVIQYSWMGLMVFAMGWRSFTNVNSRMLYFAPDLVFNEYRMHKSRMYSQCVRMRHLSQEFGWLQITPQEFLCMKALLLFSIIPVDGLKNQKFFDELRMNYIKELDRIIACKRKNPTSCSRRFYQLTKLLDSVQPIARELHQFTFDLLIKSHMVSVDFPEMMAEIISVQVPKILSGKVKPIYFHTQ
Androgen receptor, sequence (P10275 whole entry, looked up, change not shown): as above

In the case of `CC1(C)C(=O)N(c2ccc(C#N)c(C(F)(F)F)c2)C(=O)N1CCNc1ccc(F)c2ncccc12`, the Activity [1] is reported as “Active”, the inhibition in vivo at 30 mg/kg [2] is reported as 63% and the Activity [3] is reported as “Active”. The Activity [4] was “Dose-Dependent Effect”, the AUC(0-inf) [5] was 2.92 µg·h/mL and the Activity [6] was “Dose-Dependent Effect”. For the same molecule, the half-life [7] was 4.78 h, the Activity [8] was 50.6% and the Activity [9] was “Active”. For the same molecule, the DC50 [10] was 2.64 µM, the Activity [11] was “Dose-Dependent Effect” and the Activity [12] was “Active”. The Activity [13] was “Non-Toxic”, the Activity [14] was “Active” and the IC50 [15] was 1.4 µM. The IC50 at 48 h [16] was > 100 µM and the Activity [17] was “Dose-Dependent Effect”.
